Test results reported in patent US5436246A, “Serotonin receptor agents” (priority 1993, dated 1995).
pIC50: −log10 of the molar value. Counter-ions that a name gives are not always drawn. Like-named read-outs stand apart in the source and are kept apart here.

Columns and labels:
[1] = target: T1, 5HT1D receptor (Bos taurus, UniProt F1MGM3); test: 5HT1D receptor binding affinity (procedure of Peroutka et al.)
T1 construct: from tissue
Procedure: The compounds affinity for the 5HT1D site was determined by the binding procedure of Peroutka et al as reported in European Journal of Pharmacology, Vol. 163 at pages 133-166 (1989). […] Where multiple determinations of the binding affinity have been performed, the average is given followed by the number of determinations in parentheses.

[2] = target: T2, 5HT1A receptor (Rattus norvegicus, UniProt P19327); test: 5HT1A receptor binding affinity (procedure of Gozlan et al.)
T2 sequence (P19327 1-422): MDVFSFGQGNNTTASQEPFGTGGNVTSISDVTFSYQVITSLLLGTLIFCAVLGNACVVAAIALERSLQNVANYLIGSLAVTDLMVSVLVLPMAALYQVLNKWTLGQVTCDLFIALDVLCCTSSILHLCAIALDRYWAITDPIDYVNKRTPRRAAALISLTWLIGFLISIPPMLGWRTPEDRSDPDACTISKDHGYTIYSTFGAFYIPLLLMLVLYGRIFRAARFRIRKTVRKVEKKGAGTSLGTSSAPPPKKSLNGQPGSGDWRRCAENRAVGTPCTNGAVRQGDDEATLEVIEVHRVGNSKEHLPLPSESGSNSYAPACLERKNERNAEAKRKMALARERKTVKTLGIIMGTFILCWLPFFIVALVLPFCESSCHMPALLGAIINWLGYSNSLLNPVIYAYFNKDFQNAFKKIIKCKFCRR
Procedure: In the following examples, the compounds binding affinity for both the 5HT1A receptor and 5HT1D receptors is reported. The compounds affinity for the 5HT1D site was determined by the binding procedure of Peroutka et al as reported in European Journal of Pharmacology, Vol. 163 at pages 133-166 (1989). The compounds affinity for the 5HT1A receptor was determined by the procedure of Gozlan et al., as reported in Nature, Volume 305, at pages 140-142 (1983). Where multiple determinations of the binding affinity have been performed, the average is given followed by the number of determinations in parentheses. Also, the PA2 value for the saphenous vein preparation as described in this application is given, followed by the intrinsic (agonist) activity in parentheses, expressed as a percentage. [drawing 10] […]

[3] = target: 5-HT1D receptors (Canis lupus familiaris, UniProt P79250); set-up: species or system dog (canine)
Procedure: In the following examples, the compounds binding affinity for both the 5HT1A receptor and 5HT1D receptors is reported. The compounds affinity for the 5HT1D site was determined by the binding procedure of Peroutka et al as reported in European Journal of Pharmacology, Vol. 163 at pages 133-166 (1989). The compounds affinity for the 5HT1A receptor was determined by the procedure of Gozlan et al., as reported in Nature, Volume 305, at pages 140-142 (1983). Where multiple determinations of the binding affinity have been performed, the average is given followed by the number of determinations in parentheses. Also, the PA2 value for the saphenous vein preparation as described in this application is given, followed by the intrinsic (agonist) activity in parentheses, expressed as a percentage. [drawing 10]
We have used canine saphenous vein for studying 5-HT1D receptors which is similar, although not totally identical, to human coronary 5-HT1D receptors (see Humphrey, P. P. A., Feniuk, W., Perren, M. J., Connor, H. E., Oxford, A. W., Coates, I. H. and Butina, D.: GR43175, a selective agonist for the 5-HT1 -like receptor in dog isolated saphenous vein, Br. J. Pharmacol. 94:1123-1132, 1988; Kaumann, A. J.: Human heart 5-HT receptors, Second international symposium on serotonin, from cell biology to pharmacology and therapeutics, Houston, Sep. 15-18, 1992).
Mongrel dogs weighing 12-18 kg were killed by an intravenous injection of an overdose of sodium pentobarbitol. Saphenous veins were isolated, removed, cleaned of surrounding connective tissue, and cut into helical strips in a dish containing Krebs-Henseleit solution with the following composition in mM: NaCl, 110.0; KCl, 4.8; CaCl2, 2.5; KH2 PO4, 1.2; EDTA(NaEDTA), 0.027; and was constantly bubbled with 95% O2 -5% CO2. Unless otherwise specified, the endothelium of the […] was removed by rubbing with a metal rod. The intactness or absence of functional endothelium was checked by the presence or absence of a relaxant effect of acetycholine (10^-5 M) in phenylephrine-contracted tissues (see Furchgott, R. F. and Zawadzki, J. V.: The obligatory role of endothelial cells in the relaxtion of arterial smooth muscle by acetycholine, Nature 288:373-376, 1980). Each muscle strip (3×30 mm) was set up in a tissue bath at 37° C. and loaded with 2 gram tension. Contractility of the tissues was measured isometrically with a Grass FT03 force-displacement transducer and recorded on a Strip chart recorder. The tissues were allowed to stabilize for 2 hours before the experiment was started, during which time they were washed repeatedly. Tissues were contracted with 3.162×10^-6 M phenylephrine and 40 mM KCl, which produced 60-70% of their maximum contractile responses, to condition the tissue. 5-HT dose response experiment was conducted. Test compounds were then incubated with the tissue before a second 5-HT dose response experiment was performed. Data are expressed as the pA2 value, the negative logarithm of the molar concentration of antagonist which produced a 2 fold shift in ED50 values of 5-HT dose response curves (see Van Rossum, J. M.: Cumulative dose-response curve: Technique for the making of dose-response curves in isolated organs and the evaluation of drug parameters, Arch. Int. Pharmacodyn. Ther. 143:299-330, 1963).

[4] = average of multiple determinations where number in parentheses is given, read-out: IC50 (5HT1D Binding Affinity)
[5] = average of multiple determinations where number in parentheses is given, read-out: IC50 (5HT1A Binding Affinity)

T1 sequence (F1MGM3 1-403): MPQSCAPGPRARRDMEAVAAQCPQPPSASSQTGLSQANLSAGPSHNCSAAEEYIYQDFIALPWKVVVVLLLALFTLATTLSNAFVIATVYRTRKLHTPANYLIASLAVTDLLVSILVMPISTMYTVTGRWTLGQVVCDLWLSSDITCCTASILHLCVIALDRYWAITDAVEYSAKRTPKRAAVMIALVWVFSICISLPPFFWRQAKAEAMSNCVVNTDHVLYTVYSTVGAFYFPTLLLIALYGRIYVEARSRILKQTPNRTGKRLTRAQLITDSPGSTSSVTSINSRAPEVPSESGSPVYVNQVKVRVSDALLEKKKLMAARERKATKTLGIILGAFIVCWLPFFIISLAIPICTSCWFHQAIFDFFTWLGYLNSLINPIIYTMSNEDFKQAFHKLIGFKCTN
Sequence of 5-HT1D receptors (P79250 whole entry): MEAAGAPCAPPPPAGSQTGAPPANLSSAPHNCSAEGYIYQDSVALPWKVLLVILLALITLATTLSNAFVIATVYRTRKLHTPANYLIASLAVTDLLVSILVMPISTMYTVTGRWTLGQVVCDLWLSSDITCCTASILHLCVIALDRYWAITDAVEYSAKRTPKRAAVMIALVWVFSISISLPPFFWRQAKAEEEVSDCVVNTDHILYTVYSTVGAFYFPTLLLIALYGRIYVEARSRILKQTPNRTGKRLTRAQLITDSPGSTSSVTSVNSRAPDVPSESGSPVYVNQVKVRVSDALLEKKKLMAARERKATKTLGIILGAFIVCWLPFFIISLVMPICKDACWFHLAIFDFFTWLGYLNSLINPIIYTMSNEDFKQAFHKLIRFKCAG

Row | SMILES | pIC50 [1, 4] | pIC50 [2, 5] | pIC50 [1] | pIC50 [2] | also measured
1 | CCOC(=O)c1cc2c(N3CCN(Cc4ccccc4)CC3)cccc2s1 [Example 1, ethyl-4-[4-(phenylmethyl)-1-piperazinyl]benzo[b]thiophene-2-carboxylate monohydrochloride] | < 6.00 | < 6.00 | – | – | –
2 | OCc1cc2c(N3CCN(Cc4ccccc4)CC3)cccc2s1 [Example 2, 4-[4-(phenylmethyl)-1-piperazinyl]-benzo[b]thiophene-2-methanol monohydrochloride] | 6.12 | 7.46 | – | – | –
3 | N#Cc1cc2c(N3CCN(Cc4ccccc4)CC3)cccc2s1 [Example 3, 4-[4-(phenylmethyl)-1-piperazinyl]-benzo[b]thiophene-2-nitrile monohydrochloride] | < 6.00 | 6.74 | – | – | –
4 | NC(=O)c1cc2c(N3CCN(Cc4ccccc4)CC3)cccc2s1 [Example 4, 4-[4-(phenylmethyl)-1-piperazinyl]-benzo[b]thiophene-2-carboxamide monohydrochloride] | 7.28 | 8.80 | – | – | –
5 | CCOC(=O)c1cc2c(N3CCNCC3)cccc2s1 [Example 5, ethyl 4-(1-piperazinyl)-benzo[b]thiophene-2-carboxylate monohydrochloride] | – | – | 7.33 | 7.05 | –
6 | CCOC(=O)c1cc2c(N3CCN(CCc4ccccc4)CC3)cccc2s1 [Example 6, ethyl-4-[4-(2-phenylethyl)-1-piperazinyl]-benzo[b]thiophene-2-carboxylate monohydrochloride] | 6.97 | 7.43 | – | – | –
7 | N#Cc1cc2c(N3CCN(CCc4ccccc4)CC3)cccc2s1 [Example 8, 4-[4-(2-phenylethy-1-piperazinyl]-benzo[b]thiophene-2-nitrilemonohydrochloride] | – | – | 7.74 | 8.40 | –
8 | CCOC(=O)c1cc2c(N3CCN(CCCc4ccccc4)CC3)cccc2s1 [Example 14, ethyl-4-[4-(3-phenylpropyl)-1-piperazinyl]-benzo[b]thiophene-2-carboxylatemonohydrochloride] | 6.26 | 6.62 | – | – | –
9 | N#Cc1cc2c(N3CCN(CCCc4ccccc4)CC3)cccc2s1 [Example 16, 4-[4-(3-phenylpropyl)-1-piperazinyl]-benzo[b]thiophene-2-nitrile monohydrochloride] | 6.76 | 7.68 | – | – | –
10 | OCc1cc2c(N3CCN(CCc4ccc(Cl)cc4)CC3)cccc2s1 [Example 19, 4-[4-[2-(4-chlorophenyl)ethyl]-1-piperazinyl]-benzo[b]thiophene-2-methanolmonohydrochloride] | – | – | 8.00 | 8.70 | –
11 | OCc1cc2c(N3CCN(CCc4ccc(F)cc4)CC3)cccc2s1 [Example 23, 4-[4-[2-(4-fluorophenyl)ethyl]-1-piperazinyl]-benzo[b]thiophene-2-methanolmonohydrochloride] | – | – | 8.52 | 8.52 | –
12 | NC(=O)c1cc2c(N3CCN(CCc4ccc(F)cc4)CC3)cccc2s1 [Example 25, 4-[4-[2-(4-fluorophenyl)ethyl]-piperazinyl]-benzo[b]-thiophene-2-carboxamide monohydrochloride] | – | – | 8.22 | 9.10 | –
13 | Cc1ccc(CCN2CCN(c3cccc4sc(CO)cc34)CC2)cc1 [Example 27, 4-[4-[2-(4-methylphenyl)-ethyl]-1-piperazinyl]-benzo[b]thiophene-2-methanol monohydrochloride] | – | – | 9.00 | 8.52 | –
14 | Cc1ccc(CCN2CCN(c3cccc4sc(C#N)cc34)CC2)cc1 [Example 28, 4-[4-[2-(4-methylphenyl)ethyl]-1-piperazinyl]-benzo[b]thiophene-2-nitrile monohydrochloride] | – | – | 7.25 | 8.40 | –
15 | CCOC(=O)c1cc2c(N3CCN(CCc4ccc(OC)cc4)CC3)cccc2s1 [Example 30, ethyl-4-[4-[2-(4-methoxyphenyl)ethyl]-1-pierazinyl]-benzo-[b]thiophene-2-carboxylate monohydrochloride] | 7.14 | 7.13 | – | – | –
16 | COc1ccc(CCN2CCN(c3cccc4sc(CO)cc34)CC2)cc1 [Example 31, 4-[4-[2-(4-methoxyphenyl)ethyl]-1-piperazinyl]-benzo[b]thiophene-2-methanol monohydrochloride] | – | – | 8.70 | 9.00 | –
17 | Cc1c(CO)sc2cccc(N3CCN(CCc4ccccc4)CC3)c12 [Example 33, 4-[4-(2,phenylethyl)-1-piperazinyl]-benzo[b]-thiophene-3-methyl-2-methanol monhydrochloride 0.5 hydrate] | – | – | 7.51 | 8.05 | –
18 | CCCN1CCN(c2cccc3sc(CO)cc23)CC1 [Example 35, 4-[(4-propyl)-1-piperazinyl]benzo[b]thiophene-2-methanol hydrochloride] | 7.18 | 7.47 | – | – | –
19 | CN1CCN(c2cccc3sc(CO)cc23)CC1 [Example 39, 4-[4-methyl-1-piperazinyl]-benzo[b]thiophene-2-methanol hydrochloride] | – | – | 7.80 | – | –
20 | CC(O)c1cc2c(N3CCN(CCc4ccccc4)CC3)cccc2s1 (centres unmarked) [Example 43, 1-[4-(4-phenethyl-piperazin-1-yl)-benzo[b]thiophen-2-yl]ethanol hydrochloride] | – | – | 8.52 | 9.30 | –
21 | COCc1cc2c(N3CCNCC3)cccc2s1 [Example 45, 4-(1-piperazinyl)-benzo[b]thiophene-2-methoxymethyl hydrochloride hemihydrate] | – | – | 8.40 | – | –
22 | CNC(=O)c1cc2c(N3CCNCC3)cccc2s1 [Example 49, 4-(1-piperazinyl)benzol[b]-thiophene-2-(N-methyl)carboxamide dihydrochloride hydrate] | – | – | 8.08 | – | –
23 | O=[N+]([O-])c1ccc(CCN2CCN(c3cccc4sc(CO)cc34)CC2)cc1 [Example 50, 4-[4-[2-(4-nitrophenyl)ethyl]-1-piperazinyl]-benzo[b]thiophene-2-methanol hydrochloride] | 8.22 | 9.00 | – | – | –
24 | NCc1cc2c(N3CCN(CCc4ccccc4)CC3)cccc2s1 [Example 55, 4-[4-(2-phenylethyl)-1-piperazinyl]-benzo[b]thiophene-2-methanamine dihydrochloride] | – | – | 7.92 | 8.52 | –
25 | OCC=Cc1cc2c(N3CCN(CCc4ccccc4)CC3)cccc2s1 [Example 59, 3-[4-(4-phenethyl-piperazin-1-yl)-benzo[b]thiophen-2-yl]-prop-2-en-1-ol hydrochloride] | – | – | – | – | Kb [3]: 0.55 nM; Emax ([3]; dog, read-out: intrinsic (agonist) activity, saphenous vein preparation): 0%
